Assay results from ChEMBL document CHEMBL1201862, “PubChem BioAssay data set” (2004).
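48-hour exposure; five concentrations; linearly interpolated endpoints. Abbreviation: GI50, concentration required for 50% inhibition of growth.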 Calls of active or inactive are those of the source. Rule as the data show it: active = GI50 up to about 1.1 µM and inactive = higher.

Tests used:
Assay in all cases: DTP human tumour cell line panel, 48 h
Malme-3M = system: Malme-3M
SK-MEL-5 = system: SK-MEL-5
HL-60 = system: HL-60
NCI-H522 = system: NCI-H522
RXF 393 = system: RXF 393
NCI-H460 = system: NCI-H460
OVCAR-4 = system: OVCAR-4
PC-3 = system: PC-3
RPMI-8226 = system: RPMI-8226
HT-29 = system: HT-29
CCRF-CEM = system: CCRF-CEM
OVCAR-5 = system: OVCAR-5
A498 = system: A498
A549 = system: A549
UACC-62 = system: UACC-62
SK-OV-3 = system: SK-OV-3
SF-539 = system: SF-539

Measured: GI50

COC(=O)[C@H](Cc1ccccc1)NC(=O)N1CCCN(C(=O)N[C@@H](Cc2ccccc2)C(=O)OC)CCCN(C(=O)N[C@@H](Cc2ccccc2)C(=O)OC)CCC1
inactive: Malme-3M 17.2 µM | SK-MEL-5 19.4 µM | HL-60 32.8 µM | NCI-H522 18.9 µM | RXF 393 16.9 µM | NCI-H460 27.7 µM | OVCAR-4 20.7 µM | PC-3 15.8 µM | RPMI-8226 32.1 µM | HT-29 16.8 µM | CCRF-CEM 32.5 µM | OVCAR-5 15.7 µM | A498 19.9 µM | A549 27.9 µM | UACC-62 16.2 µM | SK-OV-3 22.8 µM

Cc1nn(-c2ccccc2)c(C)c1/C=N/N=C1\S/C(=C\c2ccc(Cl)cc2)C(=O)N1c1ccccc1
inactive: Malme-3M 28.1 µM | SK-MEL-5 > 100 µM | HL-60 11.8 µM | RXF 393 12.6 µM | NCI-H460 > 100 µM | OVCAR-4 2.15 µM | PC-3 > 100 µM | RPMI-8226 26.4 µM | HT-29 16.6 µM | CCRF-CEM > 100 µM | OVCAR-5 > 100 µM | SF-539 > 100 µM | A498 > 100 µM | A549 10.7 µM | UACC-62 16.8 µM | SK-OV-3 > 100 µM

O=C1C2=Cc3ccccc3OC2(O)Oc2cc(O)cc(O)c21 (stereo unspecified)
inactive: Malme-3M > 100 µM | SK-MEL-5 > 100 µM | RXF 393 > 100 µM | NCI-H460 41.5 µM | OVCAR-4 92.3 µM | PC-3 > 100 µM | RPMI-8226 > 100 µM | HT-29 > 100 µM | CCRF-CEM 57.4 µM | OVCAR-5 > 100 µM | SF-539 > 100 µM | A498 > 100 µM | A549 > 100 µM | UACC-62 71.8 µM | SK-OV-3 > 100 µM

COc1c2cc([N+](=O)[O-])cc1CN(C(=O)C(F)(F)F)CCOCCN(C(=O)C(F)(F)F)C2
inactive: Malme-3M > 100 µM | SK-MEL-5 > 100 µM | HL-60 > 100 µM | NCI-H522 > 100 µM | NCI-H460 > 100 µM | OVCAR-4 > 100 µM | PC-3 > 100 µM | HT-29 > 100 µM | CCRF-CEM > 100 µM | OVCAR-5 > 100 µM | SF-539 > 100 µM | A498 > 100 µM | A549 > 100 µM | UACC-62 > 100 µM | SK-OV-3 > 100 µM

COc1ccccc1C1(c2c(OC)c(=O)c2=O)SCCCS1
inactive: Malme-3M 62.5 µM | SK-MEL-5 > 100 µM | HL-60 > 100 µM | NCI-H522 27.4 µM | RXF 393 44.5 µM | NCI-H460 > 100 µM | OVCAR-4 > 100 µM | PC-3 > 100 µM | RPMI-8226 32 µM | HT-29 > 100 µM | CCRF-CEM 82.6 µM | OVCAR-5 34.4 µM | SF-539 > 100 µM | A498 49 µM | A549 74.8 µM | UACC-62 > 100 µM | SK-OV-3 > 100 µM

Clc1n[nH]c2ccccc12
inactive: Malme-3M > 100 µM | SK-MEL-5 > 100 µM | HL-60 > 100 µM | NCI-H522 > 100 µM | RXF 393 > 100 µM | NCI-H460 > 100 µM | OVCAR-4 > 100 µM | PC-3 > 100 µM | RPMI-8226 > 100 µM | HT-29 > 100 µM | CCRF-CEM > 100 µM | OVCAR-5 > 100 µM | SF-539 > 100 µM | A498 > 100 µM | A549 > 100 µM | UACC-62 > 100 µM | SK-OV-3 > 100 µM
